For two molecules, EC50 results are on record in patent US20140213513A1 (Sanofi, priority 2012, published 2014).

What all share (format): cell-based
Holding throughout (conditions): Table 7; cAMP formation
In general terms: cAMP levels reflect the balance of adenylyl cyclase and phosphodiesterase activity.

For assay [1], the target named is T1, human GLP-1 receptor (hGLP-1 R) (Homo sapiens, UniProt P43220).
T1 construct: expressed in transfected cells
The experiment in a line: cAMP response of HEK-293 cells stably expressing human GLP-1 receptor (HTRF). In outline: (§1)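 Stably transfected HEK-293 cells, accutase-harvested; assay buffer 1×HBSS/20 mM HEPES/0.1% BSA/2 mM IBMX; 400000 cells/ml; compound 30 min, RT; cAMP by HTRF kit.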

Assay [2] has as its target T2, human GIP receptor (hGIP R) (Homo sapiens, UniProt P48546).
T2 construct: expressed in transfected cells
T2 sequence (P48546 22-466): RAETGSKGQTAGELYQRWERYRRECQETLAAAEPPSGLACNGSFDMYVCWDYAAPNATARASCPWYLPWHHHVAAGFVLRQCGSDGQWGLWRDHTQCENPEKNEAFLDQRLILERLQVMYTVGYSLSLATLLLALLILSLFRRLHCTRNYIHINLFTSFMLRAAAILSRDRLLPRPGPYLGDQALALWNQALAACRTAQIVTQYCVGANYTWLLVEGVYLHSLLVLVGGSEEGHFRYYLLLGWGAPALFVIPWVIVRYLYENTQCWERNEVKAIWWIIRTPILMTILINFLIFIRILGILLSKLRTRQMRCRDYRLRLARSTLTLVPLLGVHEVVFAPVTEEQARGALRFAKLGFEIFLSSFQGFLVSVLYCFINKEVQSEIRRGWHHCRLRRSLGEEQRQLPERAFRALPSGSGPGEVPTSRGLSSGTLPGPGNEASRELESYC
As to the kind of experiment: cAMP response of HEK-293 cells stably expressing human GIP receptor (HTRF). In outline: as §1
(In general: Time-resolved FRET reads energy transfer from a long-lived donor to a nearby acceptor.)

Assay [3] deals with T3, human glucagon receptor (hGLUC R) (Homo sapiens, UniProt P47871).
T3 construct: expressed in transfected cells
As to the kind of experiment: cAMP response of HEK-293 cells stably expressing human glucagon receptor (HTRF). In short, it runs like this:
as §1

*1 amine or outer side, *2 acyl side, *3 side chain or, on linkers, in order; H or OH if unused. Where a SMILES comes first, the peptide text is derived from it. Side-chain parts run from the residue outwards. [ ]: non-standard residue; d: D form. The star is where a group is joined. γGlu = O=C(O)[C@H](CCC(=O)[*:2])N[*:1]; Palmitoyl = CCCCCCCCCCCCCCCC(=O)*; Aib = CC(C)(N)C(=O)O

T1 sequence (P43220 24-463): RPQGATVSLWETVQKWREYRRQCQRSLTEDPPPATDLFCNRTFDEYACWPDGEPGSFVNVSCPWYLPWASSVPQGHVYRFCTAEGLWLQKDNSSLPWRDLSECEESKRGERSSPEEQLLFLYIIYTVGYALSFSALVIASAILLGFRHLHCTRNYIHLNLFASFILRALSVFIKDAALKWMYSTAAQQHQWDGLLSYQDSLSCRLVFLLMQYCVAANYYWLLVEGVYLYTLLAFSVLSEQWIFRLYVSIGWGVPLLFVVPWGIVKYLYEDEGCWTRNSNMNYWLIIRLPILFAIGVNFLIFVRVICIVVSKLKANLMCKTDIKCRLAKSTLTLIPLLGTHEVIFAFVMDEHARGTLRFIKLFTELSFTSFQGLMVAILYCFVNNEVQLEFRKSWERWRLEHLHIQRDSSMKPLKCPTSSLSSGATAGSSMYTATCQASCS
T3 sequence (P47871 26-477): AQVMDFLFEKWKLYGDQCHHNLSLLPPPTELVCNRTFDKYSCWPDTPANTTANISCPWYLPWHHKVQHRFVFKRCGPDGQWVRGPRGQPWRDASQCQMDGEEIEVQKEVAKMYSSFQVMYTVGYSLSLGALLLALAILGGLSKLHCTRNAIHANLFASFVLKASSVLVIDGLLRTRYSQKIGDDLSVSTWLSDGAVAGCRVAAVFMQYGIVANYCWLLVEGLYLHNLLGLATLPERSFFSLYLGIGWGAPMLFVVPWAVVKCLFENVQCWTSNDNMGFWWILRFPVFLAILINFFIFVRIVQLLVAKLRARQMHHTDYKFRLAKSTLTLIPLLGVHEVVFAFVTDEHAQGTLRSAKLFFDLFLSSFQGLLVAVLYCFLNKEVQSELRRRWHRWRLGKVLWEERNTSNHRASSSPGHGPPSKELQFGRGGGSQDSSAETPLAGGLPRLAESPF

As for `CCCCCCCCCCCCCCCC(=O)N[C@@H](CCC(=O)NCCCC[C@H](NC(=O)[C@H](CCC(N)=O)NC(=O)[C@@H](NC(=O)[C@H](CO)NC(=O)[C@H](CC(C)C)NC(=O)[C@H](CC(=O)O)NC(=O)[C@H](CO)NC(=O)[C@@H](NC(=O)[C@H](Cc1ccccc1)NC(=O)[C@@H](NC(=O)CNC(=O)[C@H](CCC(N)=O)NC(=O)C(C)(C)NC(=O)[C@@H](N)Cc1ccc(O)cc1)[C@@H](C)O)[C@@H](C)O)[C@@H](C)CC)C(=O)N[C@@H](CC(=O)O)C(=O)N[C@@H](CO)C(=O)N[C@@H](CCCNC(=N)N)C(=O)N[C@@H](C)C(=O)N[C@H](C(=O)N[C@@H](CCC(N)=O)C(=O)N[C@@H](CC(=O)O)C(=O)N[C@@H](Cc1ccccc1)C(=O)N[C@H](C(=O)N[C@@H](CCC(=O)O)C(=O)N[C@@H](Cc1c[nH]c2ccccc12)C(=O)N[C@@H](CC(C)C)C(=O)N[C@@H](CCCCN)C(=O)N[C@@H](C)C(=O)NCC(=O)NCC(=O)N1CCC[C@H]1C(=O)N[C@@H](CO)C(=O)N[C@@H](CO)C(=O)NCC(=O)N[C@@H](C)C(=O)N1CCC[C@H]1C(=O)N1CCC[C@H]1C(=O)N1CCC[C@H]1C(=O)N[C@@H](CO)C(N)=O)[C@@H](C)CC)C(C)C)C(=O)O` [SEQ ID NO: 50, Y-Aib-Q-G-T-F-T-S-D-L-S-I-Q-K(yE-x53)-DSRAVQDFIEWLKAGGPSSGAPPPS-NH2] (H-Y[Aib]QGTFTSDLSIQK([γGlu-Palmitoyl])DSRAVQDFIEWLKAGGPSSGAPPPS-NH2), the EC50 (as a rule, the concentration needed to bring the measured effect to its halfway point) in assay [1] is 10 pM; in assay [2], 47.9 pM; in assay [3], 1720 pM.
Taken in the same sequence, the figures for `CCCCCCCCCCCCCCCC(=O)N[C@@H](CCC(=O)NCCCC[C@H](NC(=O)[C@H](CCC(N)=O)NC(=O)[C@@H](NC(=O)[C@H](CO)NC(=O)[C@H](CC(C)C)NC(=O)[C@H](CC(=O)O)NC(=O)[C@H](CO)NC(=O)[C@@H](NC(=O)[C@H](Cc1ccccc1)NC(=O)[C@@H](NC(=O)CNC(=O)[C@H](CCC(N)=O)NC(=O)C(C)(C)NC(=O)[C@@H](N)Cc1ccc(O)cc1)[C@@H](C)O)[C@@H](C)O)[C@@H](C)CC)C(=O)N[C@@H](CC(=O)O)C(=O)N[C@@H](CO)C(=O)N[C@@H](CCCNC(=N)N)C(=O)N[C@@H](C)C(=O)N[C@@H](CCC(N)=O)C(=O)N[C@@H](CCC(N)=O)C(=O)N[C@@H](CC(=O)O)C(=O)N[C@@H](Cc1ccccc1)C(=O)N[C@H](C(=O)N[C@@H](CCC(=O)O)C(=O)N[C@@H](Cc1c[nH]c2ccccc12)C(=O)N[C@@H](CC(C)C)C(=O)N[C@@H](CCCCN)C(=O)N[C@@H](C)C(=O)NCC(=O)NCC(=O)N1CCC[C@H]1C(=O)N[C@@H](CO)C(=O)N[C@@H](CO)C(=O)NCC(=O)N[C@@H](C)C(=O)N1CCC[C@H]1C(=O)N1CCC[C@H]1C(=O)N1CCC[C@H]1C(=O)N[C@@H](CO)C(N)=O)[C@@H](C)CC)C(=O)O` [SEQ ID NO: 51, Y-Aib-Q-G-T-F-T-S-D-L-S-I-Q-K(yE-x53)-DSRAQQDFIEWLKAGGPSSGAPPPS-NH2] (H-Y[Aib]QGTFTSDLSIQK([γGlu-Palmitoyl])DSRAQQDFIEWLKAGGPSSGAPPPS-NH2) were 4.2 pM, 6.3 pM and 571 pM.
